Literature values, collected in patent US20110256530A1, “PRODUCTS AND METHODS FOR TISSUE PRESERVATION” (GenVault Corporation, priority 2010, published 2011).
Each block holds one molecule with its values, some of them ahead of it.

Key:
[1] = charge state, pH 7, literature references (30)-(33)
[2] = tested on: nucleases; details: Table I, description in words
[3] = 25° C.
[4] = tested on: ribonucleases

Useful Chemical Properties [1]: Cation at pH 7 (32)
Molecule: Cn1cncc1C[C@H](NC(=O)CCN)C(=O)O [Anserine, Anserine (Alanine-methyl-histidine)]

Molecule: O=C(O)CN(CCN(CC(=O)O)CC(=O)O)CC(=O)O [EDTA]
Activity [2]: Divalent Chelator, Inhibitor

Useful Chemical Properties [1]: Neutral zwitterions
Molecule: N[C@@H](Cc1c[nH]cn1)C(=O)O [Histidine]

Useful Chemical Properties [1]: Neutral (31)
Molecule: OC[C@@H](O)[C@@H](O)[C@H](O)[C@H](O)CO [Mannitol]

Molecule: C=O [formalin, methylene glycol]
permeation through tissue block [3]: about 1 mm of tissue block per hour

Molecule: Aurinetricarboxylic Acid [Aurinetricarboxylic Acid (ATA)n]
Activity [2]: derivative, broad spectrum

Molecule: Uridine-Vanadate [Uridine-Vanadate U-V04]
Activity [2]: RNase specific Inhibitor

B1: RI: Large (~450 residues, ~49 kDa), acidic leucine-rich repeat protein that binds ribonucleases (protein, UniProt P13489 2-461, looked up)
Ribonuclease inhibitor: SLDIQSLDIQCEELSDARWAELLPLLQQCQVVRLDDCGLTEARCKDISSALRVNPALAELNLRSNELGDVGVHCVLQGLQTPSCKIQKLSLQNCCLTGAGCGVLSSTLRTLPTLQELHLSDNLLGDAGLQLLCEGLLDPQCRLEKLQLEYCSLSAASCEPLASVLRAKPDFKELTVSNNDINEAGVRVLCQGLKDSPCQLEALKLESCGVTSDNCRDLCGIVASKASLRELALGSNKLGDVGMAELCPGLLHPSSRLRTLWIWECGITAKGCGDLCRVLRAKESLKELSLAGNELGDEGARLLCETLLEPGCQLESLWVKSCSFTAACCSHFSSVLAQNRFLLELQISNNRLEDAGVRELCQGLGQPGSVLRVLWLADCDVSDSSCSSLAATLLANHSLRELDLSNNCLGDAGILQLVESVRQPGCLLEQLVLYDIYWSEEMEDRLQALEKDKPSLRVIS
complexes with certain ribonucleases [4]: extremely tight complexes
